Measured values as given in ChEMBL document CHEMBL1201862, “PubChem BioAssay data set” (2004).
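Briefly, cells in 96-well plates were exposed to five compound concentrations for 48 h, and endpoints were estimated by linear interpolation. At the GI50, growth is halved.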 Calls of active or inactive are those of the source. Cut-off read from the data, not from the text of the source: active = GI50 up to about 1.1 µM and inactive = higher.

Columns and labels:
Experiment in all cases: NCI anticancer screen, dose series, 48 h
NCI/ADR-RES = tested on: NCI/ADR-RES
SK-MEL-28 = tested on: SK-MEL-28
HOP-92 = tested on: HOP-92
TK-10 = tested on: TK-10
MDA-N = tested on: MDA-N
OVCAR-5 = tested on: OVCAR-5
M14 = tested on: M14
NCI-H522 = tested on: NCI-H522
SK-MEL-2 = tested on: SK-MEL-2
OVCAR-3 = tested on: OVCAR-3
UO-31 = tested on: UO-31
786-0 = tested on: 786-0
ACHN = tested on: ACHN
CAKI-1 = tested on: CAKI-1
HL-60 = tested on: HL-60
SK-OV-3 = tested on: SK-OV-3
MCF7 = tested on: MCF7
T47D = tested on: T47D
RPMI-8226 = tested on: RPMI-8226
A498 = tested on: A498

SMILES	GI50 (NCI/ADR-RES)	GI50 (SK-MEL-28)	GI50 (HOP-92)	GI50 (TK-10)	GI50 (MDA-N)	GI50 (OVCAR-5)	GI50 (M14)	GI50 (NCI-H522)	GI50 (SK-MEL-2)	GI50 (OVCAR-3)	GI50 (UO-31)	GI50 (786-0)	GI50 (ACHN)	GI50 (CAKI-1)	GI50 (HL-60)	GI50 (SK-OV-3)	GI50 (MCF7)	GI50 (T47D)	GI50 (RPMI-8226)	GI50 (A498)
CC1=CC(=O)/C(=C/n2c(=S)[nH]c3cc(C)ccc32)C(=O)O1	> 100 µM (inactive)	> 100 µM (inactive)	> 100 µM (inactive)	> 100 µM (inactive)	> 100 µM (inactive)	> 100 µM (inactive)	> 100 µM (inactive)	> 100 µM (inactive)	> 100 µM (inactive)	> 100 µM (inactive)	> 100 µM (inactive)	> 100 µM (inactive)	> 100 µM (inactive)	> 100 µM (inactive)	55.6 µM (inactive)	> 100 µM (inactive)	> 100 µM (inactive)			
NCCN1C(=O)CN=C(c2ccc(Cl)cc2)c2cc(Cl)ccc21	15.9 µM (inactive)	> 100 µM (inactive)	9.84 µM (inactive)	16.1 µM (inactive)	16.7 µM (inactive)	15.7 µM (inactive)	16.1 µM (inactive)	16.1 µM (inactive)	16.3 µM (inactive)	15.5 µM (inactive)	13.9 µM (inactive)	15.9 µM (inactive)	18.7 µM (inactive)	16.3 µM (inactive)	16 µM (inactive)	22.4 µM (inactive)		21.8 µM (inactive)	17.6 µM (inactive)	19.1 µM (inactive)
CCN(CC)c1ccc2cc(-c3nnc(-c4ccccc4O)o3)c(=O)oc2c1	10.5 µM (inactive)	11.7 µM (inactive)			12.5 µM (inactive)	16.2 µM (inactive)	11.1 µM (inactive)	5.43 µM (inactive)	14.5 µM (inactive)	5.97 µM (inactive)	10.4 µM (inactive)	8.99 µM (inactive)	10.2 µM (inactive)	11.5 µM (inactive)	4.56 µM (inactive)	17.1 µM (inactive)	10.3 µM (inactive)		14.6 µM (inactive)	13 µM (inactive)
Nc1nc(Cl)cc(NCC2(CO)CC(CCCCc3ccccc3)C2)n1 (stereo not drawn)		> 100 µM (inactive)	96.4 µM (inactive)	> 100 µM (inactive)	89.1 µM (inactive)	> 100 µM (inactive)	67.6 µM (inactive)	66.7 µM (inactive)	> 100 µM (inactive)	> 100 µM (inactive)		42.3 µM (inactive)	> 100 µM (inactive)	82.8 µM (inactive)	6.55 µM (inactive)	> 100 µM (inactive)	7.55 µM (inactive)		10.9 µM (inactive)	18.1 µM (inactive)
CCOC(=O)C(=O)/C(=C/NC(=S)Nc1ccc(Cl)c(Cl)c1)C(=O)OCC	50.1 µM (inactive)	> 100 µM (inactive)	55.8 µM (inactive)	> 100 µM (inactive)	61.2 µM (inactive)	> 100 µM (inactive)	75.3 µM (inactive)		69.2 µM (inactive)	72.9 µM (inactive)	27.5 µM (inactive)	89.7 µM (inactive)	> 100 µM (inactive)	64.7 µM (inactive)	15.9 µM (inactive)	> 100 µM (inactive)	62.2 µM (inactive)		17.9 µM (inactive)	
Clc1nc(Cl)c(Cc2ccccc2)c(Cl)n1	4.8 µM (inactive)	10.5 µM (inactive)		18.3 µM (inactive)	3.59 µM (inactive)	21.8 µM (inactive)	2.82 µM (inactive)	1.19 µM (inactive)	7.45 µM (inactive)	2.43 µM (inactive)	18.2 µM (inactive)	2.36 µM (inactive)	15.7 µM (inactive)		7.45 µM (inactive)	11.5 µM (inactive)	5.12 µM (inactive)	9.12 µM (inactive)	5.32 µM (inactive)	
COc1ccc(C2Oc3c(cccc3OC)C=C2[N+](=O)[O-])cc1OC (stereo not drawn)	3.87 µM (inactive)	4.22 µM (inactive)		23.8 µM (inactive)	5.19 µM (inactive)	13.8 µM (inactive)	3.82 µM (inactive)	2.97 µM (inactive)		11.9 µM (inactive)	14.7 µM (inactive)	3.74 µM (inactive)	10.4 µM (inactive)	13.8 µM (inactive)	2.62 µM (inactive)	4.9 µM (inactive)	4.12 µM (inactive)	12.2 µM (inactive)	32.3 µM (inactive)	
C[N+](C)(C)CC1CCCC1=O (stereo not drawn)	1.94 µM (inactive)	1.89 µM (inactive)	1.07 µM (active)	2.62 µM (inactive)	1.69 µM (inactive)	8.22 µM (inactive)	0.929 µM (active)	< 0.0105 µM (active)	5.61 µM (inactive)	2.36 µM (inactive)	2.5 µM (inactive)	2.34 µM (inactive)	1.09 µM (active)	2.48 µM (inactive)	0.406 µM (active)	16.5 µM (inactive)		0.192 µM (active)	0.306 µM (active)	13.1 µM (inactive)
O=C(CSCC(=O)N/N=C\c1ccc(F)cc1F)N/N=C\c1ccc(F)cc1F	> 100 µM (inactive)	> 100 µM (inactive)	> 100 µM (inactive)	> 100 µM (inactive)			> 100 µM (inactive)	> 100 µM (inactive)	> 100 µM (inactive)	> 100 µM (inactive)	> 100 µM (inactive)	> 100 µM (inactive)	> 100 µM (inactive)	> 100 µM (inactive)	> 100 µM (inactive)	> 100 µM (inactive)	> 100 µM (inactive)	> 100 µM (inactive)	> 100 µM (inactive)	> 100 µM (inactive)
COC(=O)c1cnn2c1ccc1ccccc12	> 100 µM (inactive)	> 100 µM (inactive)	> 100 µM (inactive)	> 100 µM (inactive)	> 100 µM (inactive)	> 100 µM (inactive)	> 100 µM (inactive)	> 100 µM (inactive)	> 100 µM (inactive)	> 100 µM (inactive)	47.8 µM (inactive)	> 100 µM (inactive)	> 100 µM (inactive)	> 100 µM (inactive)	45.9 µM (inactive)	> 100 µM (inactive)		> 100 µM (inactive)	> 100 µM (inactive)	> 100 µM (inactive)
O=C1C2=Cc3ccccc3CCN2c2ccc([N+](=O)[O-])cc21	24 µM (inactive)	> 100 µM (inactive)	41.2 µM (inactive)	83 µM (inactive)	> 100 µM (inactive)	> 100 µM (inactive)	> 100 µM (inactive)	24 µM (inactive)		44.2 µM (inactive)	24.2 µM (inactive)	> 100 µM (inactive)	43.2 µM (inactive)	69.3 µM (inactive)	66.5 µM (inactive)		2.92 µM (inactive)		> 100 µM (inactive)	35.9 µM (inactive)
O=S(=O)(/N=c1/[nH]c2ccccc2n1S(=O)(=O)c1ccccc1)c1ccccc1	44.9 µM (inactive)	34.4 µM (inactive)	38.5 µM (inactive)	47.5 µM (inactive)	56.2 µM (inactive)	64.9 µM (inactive)	25.2 µM (inactive)	50.4 µM (inactive)	35.4 µM (inactive)	27.9 µM (inactive)	36.3 µM (inactive)	67 µM (inactive)	26.5 µM (inactive)	65.8 µM (inactive)		50 µM (inactive)		53.1 µM (inactive)	35.4 µM (inactive)	80.9 µM (inactive)
CCCCNC1CCC2(SCCS2)c2[nH]c3ccccc3c21 (stereo not drawn)	21.6 µM (inactive)	34.3 µM (inactive)	28.4 µM (inactive)	13.2 µM (inactive)		59.7 µM (inactive)	17.1 µM (inactive)	8.61 µM (inactive)		8.41 µM (inactive)	20.4 µM (inactive)	4.53 µM (inactive)	27.9 µM (inactive)	2.04 µM (inactive)	3.16 µM (inactive)	49.8 µM (inactive)	3.11 µM (inactive)	2.56 µM (inactive)	1.77 µM (inactive)	20.8 µM (inactive)
COc1ccccc1C(=O)OCC1CCCN2CCCCC12 (stereo not drawn)	37.3 µM (inactive)	26.4 µM (inactive)	> 100 µM (inactive)	> 100 µM (inactive)					54.3 µM (inactive)		> 100 µM (inactive)	> 100 µM (inactive)	> 100 µM (inactive)	> 100 µM (inactive)	21.1 µM (inactive)	> 100 µM (inactive)	42.4 µM (inactive)	16.1 µM (inactive)	42.2 µM (inactive)	> 100 µM (inactive)
C=CCNC(=S)N/C=C(\C(=O)OCC)C(=O)C(=O)OCC	> 100 µM (inactive)	> 100 µM (inactive)			> 100 µM (inactive)	> 100 µM (inactive)	> 100 µM (inactive)	> 100 µM (inactive)	> 100 µM (inactive)	> 100 µM (inactive)	> 100 µM (inactive)	> 100 µM (inactive)	> 100 µM (inactive)	> 100 µM (inactive)	> 100 µM (inactive)	> 100 µM (inactive)	> 100 µM (inactive)	> 100 µM (inactive)	> 100 µM (inactive)	
COc1ccc(C2(c3ccc(OC)cc3)OC(=O)c3cccc4cccc2c34)cc1	2.72 µM (inactive)		> 100 µM (inactive)	5.94 µM (inactive)		> 100 µM (inactive)	3.78 µM (inactive)		8 µM (inactive)	4.81 µM (inactive)	> 100 µM (inactive)	5.41 µM (inactive)	7.93 µM (inactive)	2.96 µM (inactive)		6.46 µM (inactive)	4.78 µM (inactive)	2.24 µM (inactive)	3.12 µM (inactive)	> 100 µM (inactive)
